Assay results published in patent publication US20220401385A1, “Combination Therapy Based on PD-1 Signaling Inhibitors” (Kyoto University, priority 2019, published 2022).
Entries after “also recorded” stand apart in the source; their conditions may differ.

How the values were obtained:
[1] = test system: CD8+ T cells in draining lymph nodes; test: CD3/CD28 restimulation of draining lymph node CD8+ T cells of treated mice (3H uptake, IFN-γ ELISA); assay type: in vivo, C57BL/6 mice; conditions: combined use of SPD, 24 hours
Protocol: FIG. 2-1 a) Treated mice were analyzed for draining lymph nodes and the inside of tumor. Briefly, draining lymph nodes of mice were isolated 13 days after tumor inoculation, and stained with antibodies to CD8 and Sca-1. FACS diagram and percentages of Sca-1^+ cells in CD8^+ T cells are shown. b) CD8^+ T cells in isolated draining lymph nodes were stimulated with CD3/CD28 antibody beads. After 24 hours, cell proliferation was examined by means of ^3H uptake. At the same time, IFN-γ concentration in culture supernatant was measured. c) Tumor from the same mice as described above was treated with collagenase. Then, expression rates of PD-1 and Tim3 in tumor-infiltrating CD8^+ T cells were analyzed. d) Oxygen consumption rate (OCR) and extracellular acidification rate (ECAR) of draining lymph node CD8^+ T cells were measured with a Seahorse analyzer (N=3 wells). For statistical analysis, ANOVA was used. * p<0.05, ** p<0.01, *** p<0.001, **** p<0.0001.
IFN-γ levels in culture supernatant were measured quantitatively with mouse IFN-γ kit (BioLegend) following the instructions on the kit.

CD44 low CD8+ T cells [2] = test: Seahorse OCR, ATP production and SRC in vitro, CD44 low cells; assay type: cell-based, mice; conditions: SPD 0.2 μM
Protocol: (§1) FIG. 4 CD8^+ T cells were isolated from the spleen of mice without tumor inoculation, and further isolated into CD44^+ (CD44 high) and CD44^− (CD44 low) cell populations. a) CD44 low cells were simulated with CD3/CD28 antibody beads and SPD (0.2 μM). After 30 minutes, 1 hour, 2 hours and 72 hours, OCR was measured with a Seahorse analyzer. b) At the same time, total ATP production and glycolytic pathway-derived or mitochondrial activity-derived ATP production were calculated at 30-minute, 1-hour and 2-hour. c) CD44 low cells (2×10^5 cells) were stimulated with CD3/CD28 antibody beads and SPD (0.2 μM). After 24 hours, cell proliferation was examined by means of 3H uptake. d) Spare respiratory capacity (SRC) was calculated from the OCR measurement after 72 hours in a), and results with and without SPD were compared. e) CD44 low cells were stimulated with CD3/CD28 antibody beads and SPD (0.2 μM). After 24 hours, frequencies between apoptotic and viable cells were calculated by PI and Annexin staining. f-j) CD44 high cells were analyzed under the same conditions and by the same methods as described in a-e) above. As regards statistical analysis, t-test was used for comparison of two groups, and ANOVA was used for comparison of three or more groups. * p<0.05, ** p<0.01, *** p<0.001, **** p<0.0001.
(§2) Oxygen consumption rates were measured using an XF96 Extracellular Flux Analyzer (Seahorse Bioscience). CD8^+ T cells (4×10^5) per well were seeded in a determined XF96 plate. The four chemical modulators of mitochondrial oxidative phosphorylation, which came with an XF Cell Mito Stress Test Kit (Seahorse Bioscience), were added to the module sequentially. In brief, basal OCR measurement was performed […] sequential addition of oligomycin, FCCP, and rotenone/antimycin A. SRC and ATP production rates were calculated by the following formulas:
(§3) SRC (pmo; 02/min)=OCRmaximal−OCRbasal
(§4) mitoATP (pmol ATP/min)=(OCRbasal−OCRoligo)×5.5.

CD44 high CD8+ T cells [3] = test: Seahorse OCR, ATP production and SRC in vitro, CD44 high cells; assay type: cell-based, mice; conditions: SPD 0.2 μM
Protocol: as §1, §2, §3, §4

CD44 low CD8+ T cells [4] = test: Cell proliferation by 3H uptake in vitro, CD44 low cells; assay type: cell-based, mice; conditions: SPD 0.2 μM, 24 hours
Protocol: as §1

CD44 high CD8+ T cells [5] = test: Cell proliferation by 3H uptake in vitro, CD44 high cells; assay type: cell-based, mice; conditions: SPD 0.2 μM, 24 hours
Protocol: as §1

CD44 high CD8+ T cells [6] = test: Mitochondria-related proteomics in vitro, CD44 high cells; assay type: cell-based, mice; conditions: late phase, 44 hours after SPD stimulation
Protocol: FIG. 6 CD8^+ T cells were isolated from the spleen of mice without tumor inoculation, and further isolated into CD44^+ (CD44 high) and CD44^− (CD44 low) cell populations. CD44 low cells and CD44 high cells were simulated with CD3/CD28 antibody beads and SPD (0.2 μM). After 1 hour and 44 hours, cells were collected and proteomics analyses regarding mitochondria-related proteins were conducted. A heat map showing the categories of respective signaling pathways, associated protein names and comparison of their expression levels is given.
T cells were prepared by two methods. For in vivo analysis, 13 days after tumor inoculation and 3 days after the start of therapy, draining lymph nodes from 5 mice were pooled, followed by isolation of CD8^+ T cells. From the isolated CD8^+ T cells, three samples each consisting of 1×10^6 cells were prepared and used for analysis. For in vitro experiments, 2×10^5 CD8^+ T cells stimulated with 0.2 μM spermidine for 1 hour were used. For mass spectrometry analysis, a Tandem Mass Tag (TMT) system or a Data Independent Acquisition (DIA) system was used. In the analysis of in vivo CD8^+ T cells (FIG. 3), those proteins which increased by 1.5-fold or more or decreased by 0.6-fold or less were extracted.

T cells = test: Function of oxidative phosphorylation in T cells (OCR, Seahorse); assay type: cell-based
Protocol: The function of oxidative phosphorylation in T cells may be measured as described below. Briefly, the oxygen consumption rate (OCR) of T cells is measured with an extracellular flux analyzer (Seahorse). Baseline OCR and the OCR for the case where carbonyl cyanide-4 (trifluoromethoxy) phenylhydrazone (FCCP), or a reagent that is activated to the maximum extent upon addition of a mitochondrial function terminating agent (oligomycin, Antimycine A/Rotenone: A/R), is added are compared and calculated (Divakaruni A S, Paradyse A, Ferrick D A, Murphy A N, Jastroch M. 2014. Analysis and Interpretation of Microplate-Based Oxygen Consumption and pH data. In Methods in Enzymology, Volume 547, Chapter 16, 309-354).
If, in the above-described measurement method, baseline OCR is increased, spare respiratory capacity (SRC) is increased, or mitochondrial ATP production rate (mitoATP) is increased, it may well be concluded that the function of oxidative phosphorylation in T cells has increased.

For NCCCCNCCCN [SPD, spermidine], the “cell proliferation of isolated CD8+ T cells as stimulated with CD3” value ([1]; 3H uptake) was “enhanced”, the “IFN-γ production of isolated CD8+ T cells as stimulated with CD3” value ([1]; culture supernatant) was “enhanced” and the “mitochondrial oxygen consumption (OCR)” value (CD44 low CD8+ T cells [2]; 30 minutes, 1 hour, 2 hours and 72 hours after stimulation) was “increased”. The “ATP production via glycolytic pathway (glyco ATP)” value (CD44 low CD8+ T cells [2]; 1 hour after stimulation) was “significantly high”, the “ATP production via intramitochondrial pathway (mito ATP)” value (CD44 low CD8+ T cells [2]; 1 hour after stimulation) was “significantly high” and the “spare respiratory capacity (SRC)” value (CD44 low CD8+ T cells [2]; 72 hours) was “enhanced; also recorded: significantly high”. For the same compound, the “ATP production via glycolysis (glyco ATP)” value (CD44 high CD8+ T cells [3]; 1 to 2 hours after stimulation) was “not enhanced”, the “ATP production via mitochondria (mito ATP)” value (CD44 high CD8+ T cells [3]; 1 to 2 hours after stimulation) was “not enhanced” and the ATP production (CD44 high CD8+ T cells [3]; 30 minutes after stimulation) was “tendency to be enhanced”. The “mitochondrial oxygen consumption (OCR)” value (CD44 high CD8+ T cells [3]; 30 minutes after stimulation) was “increased”, the “mitochondrial oxygen consumption (OCR)” value (CD44 high CD8+ T cells [3]; 1 hour and 2 hours after stimulation) was “decreased” and the “spare respiratory capacity (SRC)” value (CD44 high CD8+ T cells [3]; 72 hours) was “enhanced; also recorded: significantly high”. The “mitochondrial oxygen consumption (OCR)” value (CD44 high CD8+ T cells [3]; 72 hours after stimulation) was “increased again”, the cell proliferation (CD44 low CD8+ T cells [4]) was “increased” and the cell proliferation (CD44 high CD8+ T cells [5]) was “not found to increase”. The “expression levels of mitochondrial proteins and proteins of mitochondria-related metabolism” value (CD44 high CD8+ T cells [6]) was “high” and the “function of oxidative phosphorylation in T cells” value (T cells) was “increased”.
